Source: US6566508B2, “Fluorogenic compounds and uses therefor” (3M Innovative Properties Company, priority 2000, dated 2003)
Read-outs that look alike come from different tables or passages of the source. Blank lines part the entries; values can stand above or below the compound they belong to.

Legend:
[1] = Fluorescence excitation and emission spectra; conditions: for λem (nm) / λex (nm): anion of hydrolysis product
From the text: Fluorescence measurements were made using a SPEX Fluorolog™ Series spectrofluorimeter (SPEX Industries, Inc., Edison, N.J.).
By using an excitation source filter centered in this spectral window and an emission source filter centered between 480 nm and 600 nm, the formation of TU anion can be measured as a product of the enzymatic cleavage of β-TUGlc without interference from β-TUGlc fluorescence.

[2] = pKa determination from fluorescence emission as a function of pH
Procedure: Fifty microliters of this solution were then diluted to 4.00 mL in a series of 50 mM sodium phosphate buffer solutions, each having a different pH, corresponding to the traces of FIG. 7a, as shown in Table 1. The final concentration of TU was 3.08×10^−4 M.

[3] = tested on: B. stearothermophilus α-glucosidase; assay: Enzymatic hydrolysis of α-TUGlc; format: biochemical; conditions: 60° C., growth media, 10 μL of 246 μM substrate, ex 450 nm, em 502 nm
Procedure: Commercially prepared B. stearothermophilus α-glucosidase (Sigma Chemical Company, St. Louis, Mo.) was used as 100 units per mL (1 unit produces 1 μmole of product per minute). 10 μL of this solution was added to […] of growth media to simulate the actual environment of the bacterial spores. This enzyme and media mixture was then incubated for 7 minutes at 60° C., at which time 10 μL of 246 μM α-TUGlc (prepared as described in Example 4) was added. The reaction was monitored on the SPEX Fluorolog™ spectrofluorimeter by exciting at 450 nm with emission at 502 nm. […] Variation in fluorescence may be due to variation in activity of the bacterial enzyme per mL of mixture. The assays of examples 7 and 8 confirmed the presence of the α-glucoside derivative.

[4] = tested on: B. stearothermophilus spores; assay: Bacterial hydrolysis of α-TUGlc; format: cell-based, Bacillus stearothermophilus; conditions: spores 1×10^8 cells/mL diluted in growth media, 56° C., 10 μL of 246 μM substrate
Procedure: 100 μL of B. stearothermophilus spores (initial cone. 1×10^8 cells/mL) was added to 890 μL of growth media and the mixture was incubated at 56° C. for 7 minutes. […] This increase in fluorescence indicates enzymatic cleavage of the substrate. However, because the spores have both β- and α-glucosidase activity, the stereochemistry of the substrate can not be judged.

[5] = tested on: E. coli P18 cells; assay: Escherichia coli detection with β-TUGal in growth media (microwell fluorescence); format: cell-based
Procedure: E. coli is known to secrete extracellular galactosidase. In a selective growth media, E. coli can be detected based on development of this enzyme activity. Varying concentrations of 3-(2-thienyl) umbelliferyl-β-D-galactoside (β-TUGal) indicator were assayed against three known concentrations of E. coli P 18 cells: ca 10^3, 10^2, and 10 cells/mL. Viable cell counts were determined using Petrifilm (3M, St. Paul, Minn.). Adjusting for the dilutions used in the fluorescence detection experiments, cell counts were approximately 56, 5.6, and 0.56 cells per well. A fresh overnight culture of E. coli P18 was prepared and grown in tryptic soy broth (TSB, Sigma Chemical Co., St. Louis, Mo.). Ten μL of this stock culture was diluted into […] of Butterfields phosphate buffer (Hardy Diagnostics, Santa Maria, Calif.) to give a 10,000 fold dilution. Next, 10 mL of this new solution was diluted into 90 mL of phosphate buffer to give an approximate E. coli concentration of 10^3 cells/mL. Two more dilutions in this same manner yielded cultures of 10^2 and 10 cells/mL. […] Each of the three lowest dilutions of the E. coli culture were counted on Petrifilm by plating 1 mL of each and growing overnight at 37° C.

[6] = molecular target: β-galactosidase from E. coli (Escherichia coli, UniProt P00722); conditions: pH 7.6, 37° C., excitation 450 nm, 1, 10 and 20 μM substrate
Procedure: β-Galactosidase activity was continuously assayed at pH 7.6 in a fluorometer using front face detection.
Samples were excited at 450 nm and emission was monitored at 502 nm.
Assay solutions were prepared as follows: a 100 mM sodium phosphate solution, pH 7.6, a 30 mM MgCl2 solution, a solution of β-TUGal (3.08×10^−2 M, Example 1) in N,N-dimethyl formamide (DMF), and a solution of β-galactosidase (1.0 units/μl) from E. coli (Grade VIII, Sigma Chemical Co., St. Louis, Mo.) reconstituted in 100 mM sodium phosphate, pH 7.3.
All reagents were kept on ice until their time of use. From them, two solutions were prepared: the substrate solution and the enzyme solution. The substrate solution was prepared in a sample vial by further dilution of the β-TUGal solution in DMF. The preparations gave final concentrations of 1, 10, and 20 μM β-TUGal. In a separate cuvette, the phosphate buffer was combined with 150 μL MgCl2 solution and the appropriate amount of reconstituted β-galactosidase to make the enzyme solution. This was then incubated for seven minutes at 37° C. Following incubation, the substrate solution was added and the fluorescence was measured by front face detection over a 10-minute period at 37° C.

[7] = tested on: Bacillus subtilis spores; assay: LED-based monitoring of bacterial cleavage of β-TUGlc; format: cell-based
From the text: LED 110, having a maximum emission at 475 nm (Model HP HLMP CB15, Hewlett Packard Instruments, Palo Alto, Calif.), was driven in a pulsed mode with a 10% duty cycle by computer-controlled pulse generator 132 (Hewlett Packard Instruments). Light from LED 110 was introduced into filter block 130 (Model I3, Leica Microsystems, Inc., Deerfield, Ill.), comprising excitation filter 112 (model BP, 450-490 nm), dichroic mirror 114 (model RKP, reflection short pass at 510 nm), and emission filter 120 (model LP, 515 nm) and focused on an illumination region of sample 118 by objective lens 116. The illumination region was designed to accommodate a solution sample, a microfluidic chip, or other sample that might contain β-TUGlc to be enzymatically cleaved. A 10× objective was used for large detection zones (e.g., solution cuvettes, microwell arrays) and a 40× objective was used for small samples (e.g., 50 μm wide channels in microfluidic chips). Both objective lenses were obtained from Melles Griot, Irvine, Calif. […] Return fluorescence was passed through objective lens 116, reflected from dichroic mirror 114 through emission filter 120 and iris diaphragm 122, and detected with photomultiplier tube 124 (PMT Model H5783, Hamamatsu Corp., Bridgewater, N.J.) having an adjustable gain between 0 and 70,000 Amperes/Watt. PMT module 124 was powered by a 15 volt power supply (not shown). […]

[8] = tested on: β-glucosidase; assay: Hand-held LED probe, cleavage of β-TUGlc; format: biochemical; conditions: 0.125 units β-glucosidase, pH 7.6 PBS, GaN LED
Procedure: A solution of 100 μL of 1.0 mM β-TUGlc (Example 1) in DMF was combined with 840 μL of 7.6 pH PBS in a 1 mL cuvette, and the volume was adjusted to 990 μL by the addition of […] of 30 mM aq. MgCl. The mixture was irradiated using a GaN LED (λmax=480 nm, Nichia Chemical Industries, Ltd., Anan, J P) mounted in a compact, hand-held probe, and 10 μL of β-glucosidase (0.125 units in pH 7.6 PBS) was added. Within ten seconds, a strong fluorescent signal could be seen in the cuvette.

[9] = tested on: B. stearothermophilus spores; assay: Bacillus stearothermophilus detection with β-TUGlc; format: cell-based
Procedure: B. stearothermophilus spores (commercially available as ATCC 7953 or ATCC 8005 from American Type Culture Collection, Rockville, Md.) were diluted in growth media to a concentration of 1.3×10^8 cells per mL. Dilutions to 10^7 […] and 10^6 cells/mL were prepared using 50 mM sodium phosphate, pH 7.6. Aliquots of these solutions were incubated with β-TUGlc (2×10^−6 M) at 56° C. in a fluorimeter and fluorescence was monitored with excitation at 450 nm and emission at 502 nm. […] In a similar manner, spore solutions that had been steam-sterilized for 20 minutes at 121° C. were mixed with the β-TUGlc. […] The growth medium for this Example was prepared by dissolution of trypticase peptone (5 g), phytone peptone (12 g) and L-alanine (17 mg) in 1 liter of water.

[10] = Autoclave stability of β-TUGlc; format: physicochemical; conditions: 0.1 g/mL in B. subtilis growth media and pH 7.6 PBS; 20 minutes at 121° C., then 15 minutes at 132° C.
Procedure: Solutions of 0.1 g/mL of β-TUGlc (Example 1) in B. subtilis growth media and in pH 7.6 phosphate buffered saline (PBS) were heated in an autoclave for 20 minutes at 121° C. Fluorescence spectrum on excitation at 362 nm was obtained. The sample was heated a second time in an autoclave for 15 minutes at 132° C., and the fluorescence spectrum was obtained. […] Therefore, β-TUGlc was sufficiently robust to be used in a sterilization indicator format such as a Attest™ Rapid Readout Biological Indicator (3M Company, St. Paul, Minn.), wherein the fluorogenic enzyme substrate and the biological spore are both exposed to the conditions within the steam sterilizer.

[11] = tested on: β-glucosidase; assay: LED-based monitoring of enzymatic cleavage of β-TUGlc; format: biochemical
Procedure: A 10× objective was used for large detection zones (e.g., solution cuvettes, microwell arrays) and a 40× objective was used for small samples (e.g., 50 μm wide channels in microfluidic chips). […] (Model #04 OAS 016; 0.65 N.A.).
Two stock solutions of β-glucosidase (Sigma Chemical Co., St. Louis, Mo.) were prepared in pH 7.6 phosphate buffered saline (PBS): (a) 1 enzyme unit/20 μL and (b) 1 enzyme unit/400 μL, where one enzyme unit liberates 1 μMole of product per minute when salicin is the substrate. Required amounts of the stock solutions were diluted with 980 μL of PBS to create samples of 0.5, 0.125, 0.0625, 0.025, and 0.0125 units per mL, represented in FIG. 17a by traces 1 through 5, respectively. These samples were incubated for 7 minutes at 37° C., then treated with 5 μL of 24.6 mM β-TUGlc in DMF (Example 1) such that the initial concentration of β-TUGlc was 123 μM.
Fluorescence resulting from cleavage of the substrate was monitored in a thermostatted cuvette at 37 ° C. using the testbed described in Example 9 with a PMT gain setting of 822 Amperes/Watt. Fluorescent response for each enzyme concentration was monitored for three minutes. FIG. 17b is a plot of the initial rates of reaction obtained from the data in FIG. 17a.

[12] = 5 μM solution in 50 mM PBS at pH 10.0
[13] = 5 μM solution in phosphate buffered saline at pH 7.6

β-galactosidase from E. coli, sequence (P00722 2-1024): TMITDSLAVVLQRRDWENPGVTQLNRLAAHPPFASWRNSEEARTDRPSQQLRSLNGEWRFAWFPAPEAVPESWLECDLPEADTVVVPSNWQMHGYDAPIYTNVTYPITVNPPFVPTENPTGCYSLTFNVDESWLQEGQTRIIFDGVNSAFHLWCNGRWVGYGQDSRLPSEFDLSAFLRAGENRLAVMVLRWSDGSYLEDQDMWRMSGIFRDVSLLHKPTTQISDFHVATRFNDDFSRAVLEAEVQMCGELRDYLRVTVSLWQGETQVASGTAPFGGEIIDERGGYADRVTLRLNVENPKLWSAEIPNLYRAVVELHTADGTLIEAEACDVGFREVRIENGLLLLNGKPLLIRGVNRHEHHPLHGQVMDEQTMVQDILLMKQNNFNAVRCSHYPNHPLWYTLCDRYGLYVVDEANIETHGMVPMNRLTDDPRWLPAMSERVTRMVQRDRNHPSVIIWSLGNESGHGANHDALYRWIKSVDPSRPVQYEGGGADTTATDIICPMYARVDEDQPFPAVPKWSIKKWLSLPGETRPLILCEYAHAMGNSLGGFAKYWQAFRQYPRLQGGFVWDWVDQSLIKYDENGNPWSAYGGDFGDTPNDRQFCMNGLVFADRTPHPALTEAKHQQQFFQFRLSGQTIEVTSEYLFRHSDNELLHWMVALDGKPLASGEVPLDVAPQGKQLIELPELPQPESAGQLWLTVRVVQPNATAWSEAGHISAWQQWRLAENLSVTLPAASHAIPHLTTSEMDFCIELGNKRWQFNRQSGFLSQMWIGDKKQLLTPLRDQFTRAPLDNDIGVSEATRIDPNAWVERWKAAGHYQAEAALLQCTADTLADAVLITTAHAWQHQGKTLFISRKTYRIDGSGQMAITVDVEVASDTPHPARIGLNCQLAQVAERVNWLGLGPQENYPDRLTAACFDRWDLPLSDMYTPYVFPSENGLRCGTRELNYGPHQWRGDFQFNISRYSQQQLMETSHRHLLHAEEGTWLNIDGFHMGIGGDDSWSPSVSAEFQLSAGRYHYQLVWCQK

SMILES: O=c1oc2cc(O)ccc2cc1-c1nc2ccccc2[nH]1 [3-(2-benzoimidazolyl) umbelliferyl anion]
λem (nm) [1]: 477 nm | λex (nm) [1]: 420 nm | pKa [2]: 7.01

SMILES: O=c1oc2cc(O)ccc2cc1-c1nc2ccccc2s1 [3-(2-benzothiazolyl) umbelliferyl anion]
λem (nm) [1]: 488 nm | λex (nm) [1]: 447 nm | pKa [2]: 6.79

SMILES: O=c1oc2cc(OC3OC(CO)C(O)C(O)C3O)ccc2cc1-c1cccs1 (stereo not drawn) [α-TUGlc]
time at which Vmax appears [3]: about 2 minutes | fluorescence at 502 nm after substrate addition [4]: Fluorescence increased rapidly in the first 20 minutes

SMILES: O=c1oc2cc(O[C@@H]3O[C@H](CO)[C@H](O)[C@H](O)[C@H]3O)ccc2cc1-c1cccs1 [β-TUGal, 3-(2-thienyl)-umbelliferyl-7-β-D-galactoside]
positive results ([5]; 0.56 cell concentration): 3 of the 10 concentrations showed positive results | fastest time to positive result ([5]; 56 cells per well, 62 μM indicator): 6.5 h | fluorescence at 502 nm on addition of β-galactosidase [6]: rapid increase in fluorescence

Continued, in another order:

λem (nm) [1]: 471 nm | λex (nm) [1]: 425 nm | pKa [2]: 6.56
SMILES: O=c1oc2cc(O)ccc2cc1-c1nc2ccccc2o1 [3-(2-benzoxazolyl) umbelliferyl anion]

emission maximum [1, 12]: ~502 nm | excitation maximum [1, 12]: ~410 nm | λem (nm) [1]: 502 nm | λex (nm) [1]: 410 nm | pKa ([2]; umbelliferone hydrolysis product): 7.57±0.03
SMILES: O=c1oc2cc(O)ccc2cc1-c1cccs1 [3-(2-thienyl) umbelliferyl anion, 3-(2-thienyl) umbelliferone]

time to strong fluorescent signal [8]: ten | fraction hydrolyzed during each autoclave cycle [10]: approximately 10% | emission maximum [1, 13]: ~460 nm | excitation maximum [1, 13]: ~380 nm | time to significant, detectable fluorescent signal ([11]; 0.5 enzyme units, 123 μM substrate, 37° C., pH 7.6 PBS): less than 5 seconds
SMILES: O=c1oc2cc(O[C@@H]3O[C@H](CO)[C@@H](O)[C@H](O)[C@H]3O)ccc2cc1-c1cccs1 [β-TUGlc, 3-(2-thienyl)-umbelliferyl-7-β-D-glucoside]
time to presumptive identification of B. subtilis after mixing ([7]; 10^8 spores/mL, 37° C., PMT gain 88 Amperes/Watt): less than five | fluorescent signal with steam-sterilized control ([7]; steam-sterilized at 121° C. for 20 minutes): no time-dependent changes in the fluorescent signal | time until fluorescence changes were evident ([9]; 10^7 and 10^6 cells/mL, 2×10^−6 M substrate, 56° C., ex 450 nm, em 502 nm): less than 10 minutes | cleavage by steam-sterilized spore solutions ([9]; spores steam-sterilized 20 minutes at 121° C.): no enzymatic cleavage reaction | fluorescent signal with steam-sterilized enzyme ([11]; enzyme solutions steam-sterilized at 121° C. for 20 minutes): no time-dependent changes in the fluorescent signal
